Source: publication PMC10838953

Legend:
[1] = tested on: FLT3(ITD,F691L)
[2] = tested on: MCF10A cells; details: high concentrations
[3] = tested on: 786-O, A549, MDA-MB-231, OVCAR-3, U373 MG
[4] = biological target: ABL1(T315I)-phosphorylated (Homo sapiens, UniProt P00519, T315I); experiment: biochemical; details: read-out: %Ctrl @ 2000nM
[5] = biological target: ABL1-phosphorylated (Homo sapiens, UniProt P00519); experiment: biochemical; details: read-out: %Ctrl @ 2000nM
[6] = biological target: ASK1 (Homo sapiens, UniProt Q99683); experiment: biochemical; details: read-out: %Ctrl @ 2000nM
[7] = biological target: BRSK2 (Homo sapiens, UniProt Q8IWQ3); experiment: biochemical; details: read-out: %Ctrl @ 2000nM
[8] = biological target: CDC2L2 (Homo sapiens, UniProt Q9UQ88); experiment: biochemical; details: read-out: %Ctrl @ 2000nM
[9] = biological target: CDKL2 (Homo sapiens, UniProt Q92772); experiment: biochemical; details: read-out: %Ctrl @ 2000nM
[10] = biological target: EGFR(L747-E749del, A750P) (Homo sapiens, UniProt P00533, A750P/DEL747-749); experiment: biochemical; details: read-out: %Ctrl @ 2000nM
Sequence of EGFR(L747-E749del, A750P) (P00533 with tags, fused parts or gaps DEL747-749/A750P limits assumed): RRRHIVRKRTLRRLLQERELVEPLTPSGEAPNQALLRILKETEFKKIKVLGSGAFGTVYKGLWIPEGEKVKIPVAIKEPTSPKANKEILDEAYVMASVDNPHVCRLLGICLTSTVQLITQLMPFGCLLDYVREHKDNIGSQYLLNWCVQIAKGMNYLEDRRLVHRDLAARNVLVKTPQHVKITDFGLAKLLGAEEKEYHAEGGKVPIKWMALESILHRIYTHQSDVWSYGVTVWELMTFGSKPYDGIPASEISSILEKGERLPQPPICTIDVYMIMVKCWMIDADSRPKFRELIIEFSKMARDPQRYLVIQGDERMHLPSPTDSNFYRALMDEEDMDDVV

[11] = biological target: EGFR(T790M) (Homo sapiens, UniProt P00533, T790M); experiment: biochemical; details: read-out: %Ctrl @ 2000nM
[12] = biological target: EPHA1 (Homo sapiens, UniProt P21709); experiment: biochemical; details: read-out: %Ctrl @ 2000nM
[13] = biological target: EPHB6 (Homo sapiens, UniProt O15197); experiment: biochemical; details: read-out: %Ctrl @ 2000nM
[14] = biological target: ERK4 (Homo sapiens, UniProt P31152); experiment: biochemical; details: read-out: %Ctrl @ 2000nM
Sequence of ERK4 (P31152 whole entry): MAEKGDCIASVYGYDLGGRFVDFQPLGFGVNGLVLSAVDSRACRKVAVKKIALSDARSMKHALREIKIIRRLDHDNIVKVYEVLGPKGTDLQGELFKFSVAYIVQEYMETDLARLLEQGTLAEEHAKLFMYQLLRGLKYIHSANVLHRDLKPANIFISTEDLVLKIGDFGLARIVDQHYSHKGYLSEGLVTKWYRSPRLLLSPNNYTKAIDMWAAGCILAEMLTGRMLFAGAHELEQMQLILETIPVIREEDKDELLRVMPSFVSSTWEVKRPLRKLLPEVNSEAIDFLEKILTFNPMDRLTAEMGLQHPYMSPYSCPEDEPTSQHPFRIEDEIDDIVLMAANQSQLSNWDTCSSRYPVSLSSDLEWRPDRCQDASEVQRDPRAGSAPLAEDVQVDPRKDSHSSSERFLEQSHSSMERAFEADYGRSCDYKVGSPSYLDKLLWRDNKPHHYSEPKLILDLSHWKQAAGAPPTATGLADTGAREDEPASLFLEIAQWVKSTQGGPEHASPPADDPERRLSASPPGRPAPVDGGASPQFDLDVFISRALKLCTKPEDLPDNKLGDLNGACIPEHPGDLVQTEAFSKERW

[15] = biological target: FLT3-autoinhibited (Homo sapiens, UniProt P36888); experiment: biochemical; details: read-out: %Ctrl @ 2000nM
[16] = biological target: FYN (Homo sapiens, UniProt P06241); experiment: biochemical; details: read-out: %Ctrl @ 2000nM
[17] = biological target: GRK7 (Homo sapiens, UniProt Q8WTQ7); experiment: biochemical; details: read-out: %Ctrl @ 2000nM
[18] = biological target: ITK (Homo sapiens, UniProt Q08881); experiment: biochemical; details: read-out: %Ctrl @ 2000nM
[19] = biological target: LIMK2 (Homo sapiens, UniProt P53671); experiment: biochemical; details: read-out: %Ctrl @ 2000nM
[20] = biological target: MAPKAPK2 (Homo sapiens, UniProt P49137); experiment: biochemical; details: read-out: %Ctrl @ 2000nM
Sequence of MAPKAPK2 (P49137 whole entry): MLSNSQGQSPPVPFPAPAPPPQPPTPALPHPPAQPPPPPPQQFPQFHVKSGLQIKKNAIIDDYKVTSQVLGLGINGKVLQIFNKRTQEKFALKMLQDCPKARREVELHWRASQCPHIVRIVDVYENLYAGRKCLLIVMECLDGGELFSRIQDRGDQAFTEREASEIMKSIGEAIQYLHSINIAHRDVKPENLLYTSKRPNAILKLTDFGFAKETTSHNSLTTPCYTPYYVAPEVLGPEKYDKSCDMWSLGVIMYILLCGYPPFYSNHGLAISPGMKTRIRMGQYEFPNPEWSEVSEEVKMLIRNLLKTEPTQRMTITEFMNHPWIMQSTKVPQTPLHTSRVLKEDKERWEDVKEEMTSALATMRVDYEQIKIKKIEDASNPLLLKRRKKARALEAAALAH

[21] = biological target: MARK1 (Homo sapiens, UniProt Q9P0L2); experiment: biochemical; details: read-out: %Ctrl @ 2000nM
Sequence of MARK1 (Q9P0L2 whole entry): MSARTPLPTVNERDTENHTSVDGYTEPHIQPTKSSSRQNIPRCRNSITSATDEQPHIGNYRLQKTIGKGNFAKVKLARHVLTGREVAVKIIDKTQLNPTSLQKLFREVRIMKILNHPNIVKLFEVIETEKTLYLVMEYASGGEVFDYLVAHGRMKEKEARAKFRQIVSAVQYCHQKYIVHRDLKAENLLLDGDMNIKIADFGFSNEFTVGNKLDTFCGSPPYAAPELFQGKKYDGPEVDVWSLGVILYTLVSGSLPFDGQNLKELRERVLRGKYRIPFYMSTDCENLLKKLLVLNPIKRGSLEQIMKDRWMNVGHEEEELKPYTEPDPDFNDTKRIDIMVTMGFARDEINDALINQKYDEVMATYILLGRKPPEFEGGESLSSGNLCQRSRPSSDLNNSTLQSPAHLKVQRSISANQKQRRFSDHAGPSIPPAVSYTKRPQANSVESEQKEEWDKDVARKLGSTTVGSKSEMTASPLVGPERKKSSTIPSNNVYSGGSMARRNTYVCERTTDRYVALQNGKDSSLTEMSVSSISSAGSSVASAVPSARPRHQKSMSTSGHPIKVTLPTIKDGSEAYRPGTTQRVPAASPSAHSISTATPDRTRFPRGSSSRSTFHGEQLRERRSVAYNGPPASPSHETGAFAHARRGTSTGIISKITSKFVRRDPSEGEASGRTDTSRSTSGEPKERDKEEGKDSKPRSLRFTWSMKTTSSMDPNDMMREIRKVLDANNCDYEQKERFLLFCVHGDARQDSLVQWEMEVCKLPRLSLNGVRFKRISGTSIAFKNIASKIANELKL

[22] = biological target: MEK4 (Homo sapiens, UniProt P45985); experiment: biochemical; details: read-out: %Ctrl @ 2000nM
[23] = biological target: MEK6 (Homo sapiens, UniProt P52564); experiment: biochemical; details: read-out: %Ctrl @ 2000nM
[24] = biological target: MST3 (Homo sapiens, UniProt Q9Y6E0); experiment: biochemical; details: read-out: %Ctrl @ 2000nM
[25] = biological target: NDR1 (Homo sapiens, UniProt Q15208); experiment: biochemical; details: read-out: %Ctrl @ 2000nM
Sequence of NDR1 (Q15208 whole entry): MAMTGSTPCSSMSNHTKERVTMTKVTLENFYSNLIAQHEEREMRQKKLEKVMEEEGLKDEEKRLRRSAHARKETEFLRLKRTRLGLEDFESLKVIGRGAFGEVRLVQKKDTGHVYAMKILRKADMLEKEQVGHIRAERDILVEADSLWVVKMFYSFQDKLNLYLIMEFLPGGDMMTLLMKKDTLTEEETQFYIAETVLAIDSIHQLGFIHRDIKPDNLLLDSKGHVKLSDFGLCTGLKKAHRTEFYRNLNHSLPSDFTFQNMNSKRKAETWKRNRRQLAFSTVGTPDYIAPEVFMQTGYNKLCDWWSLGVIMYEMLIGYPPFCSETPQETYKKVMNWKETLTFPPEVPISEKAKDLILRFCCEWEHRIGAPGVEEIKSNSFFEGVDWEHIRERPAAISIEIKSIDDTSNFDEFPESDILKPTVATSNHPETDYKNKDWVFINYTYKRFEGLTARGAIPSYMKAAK

[26] = biological target: NEK3 (Homo sapiens, UniProt P51956); experiment: biochemical; details: read-out: %Ctrl @ 2000nM
[27] = biological target: OSR1 (Homo sapiens, UniProt O95747); experiment: biochemical; details: read-out: %Ctrl @ 2000nM
[28] = biological target: p38-beta (Homo sapiens, UniProt Q15759); experiment: biochemical; details: read-out: %Ctrl @ 2000nM
Sequence of p38-beta (Q15759 whole entry): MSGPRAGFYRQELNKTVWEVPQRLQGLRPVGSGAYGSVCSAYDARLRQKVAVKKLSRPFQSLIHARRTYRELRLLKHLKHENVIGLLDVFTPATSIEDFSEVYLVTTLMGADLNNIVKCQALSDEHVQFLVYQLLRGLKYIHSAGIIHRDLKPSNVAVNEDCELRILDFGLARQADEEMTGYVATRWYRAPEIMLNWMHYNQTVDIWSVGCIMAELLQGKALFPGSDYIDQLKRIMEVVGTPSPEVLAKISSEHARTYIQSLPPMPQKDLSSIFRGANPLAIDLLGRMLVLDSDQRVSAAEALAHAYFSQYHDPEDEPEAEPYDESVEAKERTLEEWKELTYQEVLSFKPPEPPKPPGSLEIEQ

[29] = biological target: PAK7 (Homo sapiens, UniProt Q9P286); experiment: biochemical; details: read-out: %Ctrl @ 2000nM
[30] = biological target: PFTK1 (Homo sapiens, UniProt O94921); experiment: biochemical; details: read-out: %Ctrl @ 2000nM
Sequence of PFTK1 (O94921 whole entry): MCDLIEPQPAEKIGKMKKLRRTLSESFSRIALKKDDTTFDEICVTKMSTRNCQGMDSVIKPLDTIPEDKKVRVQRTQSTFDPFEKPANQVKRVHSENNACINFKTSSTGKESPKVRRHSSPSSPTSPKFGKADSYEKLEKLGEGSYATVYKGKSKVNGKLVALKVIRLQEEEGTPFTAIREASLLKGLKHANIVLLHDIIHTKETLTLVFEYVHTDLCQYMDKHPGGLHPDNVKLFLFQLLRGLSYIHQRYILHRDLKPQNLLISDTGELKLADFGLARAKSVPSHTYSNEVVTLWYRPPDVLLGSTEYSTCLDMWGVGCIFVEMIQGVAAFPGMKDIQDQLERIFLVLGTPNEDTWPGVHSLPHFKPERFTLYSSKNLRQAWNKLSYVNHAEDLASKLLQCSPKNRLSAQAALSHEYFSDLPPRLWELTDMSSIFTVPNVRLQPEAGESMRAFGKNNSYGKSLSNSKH

[31] = biological target: PIK3C2G (Homo sapiens, UniProt O75747); experiment: biochemical; details: read-out: %Ctrl @ 2000nM
[32] = biological target: PIK4CB (Homo sapiens, UniProt Q9UBF8); experiment: biochemical; details: read-out: %Ctrl @ 2000nM
[33] = biological target: PIM3 (Homo sapiens, UniProt Q86V86); experiment: biochemical; details: read-out: %Ctrl @ 2000nM
[34] = biological target: PKAC-alpha (Homo sapiens, UniProt P17612); experiment: biochemical; details: read-out: %Ctrl @ 2000nM
[35] = biological target: PLK1 (Homo sapiens, UniProt P53350); experiment: biochemical; details: read-out: %Ctrl @ 2000nM
[36] = biological target: RET(V804L) (Homo sapiens, UniProt P07949, V804L); experiment: biochemical; details: read-out: %Ctrl @ 2000nM
[37] = biological target: SIK (Homo sapiens, UniProt P57059); experiment: biochemical; details: read-out: %Ctrl @ 2000nM
Sequence of SIK (P57059 whole entry): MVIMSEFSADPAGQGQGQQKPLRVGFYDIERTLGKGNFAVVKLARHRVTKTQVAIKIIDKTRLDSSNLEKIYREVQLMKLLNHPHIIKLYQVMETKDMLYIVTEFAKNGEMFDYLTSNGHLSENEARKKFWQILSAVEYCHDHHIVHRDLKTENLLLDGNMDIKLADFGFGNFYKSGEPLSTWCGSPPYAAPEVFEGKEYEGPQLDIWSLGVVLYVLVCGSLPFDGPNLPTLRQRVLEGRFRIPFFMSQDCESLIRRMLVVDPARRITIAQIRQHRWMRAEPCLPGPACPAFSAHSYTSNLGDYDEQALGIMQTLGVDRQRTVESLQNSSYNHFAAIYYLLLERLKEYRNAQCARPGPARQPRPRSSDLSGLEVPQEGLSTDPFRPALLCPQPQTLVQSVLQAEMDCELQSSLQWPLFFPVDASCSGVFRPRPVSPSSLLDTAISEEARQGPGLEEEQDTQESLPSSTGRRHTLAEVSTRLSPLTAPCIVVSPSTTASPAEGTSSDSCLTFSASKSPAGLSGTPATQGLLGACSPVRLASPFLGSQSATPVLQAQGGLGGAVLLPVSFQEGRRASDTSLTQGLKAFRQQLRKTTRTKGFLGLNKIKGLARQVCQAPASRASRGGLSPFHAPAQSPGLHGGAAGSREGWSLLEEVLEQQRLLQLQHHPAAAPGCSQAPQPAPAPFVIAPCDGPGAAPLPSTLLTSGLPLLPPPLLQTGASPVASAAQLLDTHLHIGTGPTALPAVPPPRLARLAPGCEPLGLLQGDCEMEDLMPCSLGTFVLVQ

[38] = biological target: SNARK (Homo sapiens, UniProt Q9H093); experiment: biochemical; details: read-out: %Ctrl @ 2000nM
Sequence of SNARK (Q9H093 whole entry): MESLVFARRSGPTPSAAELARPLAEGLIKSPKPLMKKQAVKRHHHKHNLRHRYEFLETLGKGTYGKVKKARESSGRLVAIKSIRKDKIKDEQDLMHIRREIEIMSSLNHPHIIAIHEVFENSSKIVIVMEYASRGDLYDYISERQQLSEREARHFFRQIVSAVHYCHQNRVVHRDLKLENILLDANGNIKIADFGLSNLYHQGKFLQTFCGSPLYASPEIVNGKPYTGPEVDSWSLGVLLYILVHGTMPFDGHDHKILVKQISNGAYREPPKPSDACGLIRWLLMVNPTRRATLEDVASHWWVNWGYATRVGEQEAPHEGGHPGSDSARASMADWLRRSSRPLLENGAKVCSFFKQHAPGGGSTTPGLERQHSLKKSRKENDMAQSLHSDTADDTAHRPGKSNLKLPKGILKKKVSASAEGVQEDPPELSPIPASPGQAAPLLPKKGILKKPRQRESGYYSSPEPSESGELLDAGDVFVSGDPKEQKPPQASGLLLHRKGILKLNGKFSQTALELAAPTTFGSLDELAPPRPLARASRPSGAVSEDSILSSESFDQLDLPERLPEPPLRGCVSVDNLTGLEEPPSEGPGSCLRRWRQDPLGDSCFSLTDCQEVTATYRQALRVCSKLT

[39] = biological target: STK33 (Homo sapiens, UniProt Q9BYT3); experiment: biochemical; details: read-out: %Ctrl @ 2000nM
[40] = biological target: STK39 (Homo sapiens, UniProt Q9UEW8); experiment: biochemical; details: read-out: %Ctrl @ 2000nM
[41] = biological target: TBK1 (Homo sapiens, UniProt Q9UHD2); experiment: biochemical; details: read-out: %Ctrl @ 2000nM
[42] = biological target: TEC (Homo sapiens, UniProt P42680); experiment: biochemical; details: read-out: %Ctrl @ 2000nM
[43] = biological target: TTK (Homo sapiens, UniProt P33981); experiment: biochemical; details: read-out: %Ctrl @ 2000nM

SMILES: CC(C)COC(=O)c1[nH]c2ccc(F)cc2c1-c1cn(CC2CCN(CCNS(=O)(=O)c3ccc(CC(C)C)cc3)CC2)nn1 [AB668, isobutyl 5-fluoro-3-(1-((1-(2-((4-isobutylphenyl)sulfonamido)ethyl)piperidin-4-yl)methyl)-1H-1,2,3-triazol-4-yl)-1H-indole-2-carboxylate]
- %Ctrl @ 2000nM [1]: 96%
- cytotoxicity [2]: no cytotoxicity
- cell death in various cancer cells [3]: broad effect on cell death
- remaining activity at 2 µM [4]: 79%
- remaining activity at 2 µM [5]: 82%
- remaining activity at 2 µM [6]: 100%
- remaining activity at 2 µM [7]: 79%
- remaining activity at 2 µM [8]: 94%
- remaining activity at 2 µM [9]: 84%
- remaining activity at 2 µM [10]: 90%
- remaining activity at 2 µM [11]: 89%
- remaining activity at 2 µM [12]: 99%
- remaining activity at 2 µM [13]: 82%
- remaining activity at 2 µM [14]: 84%
- remaining activity at 2 µM [15]: 100%
- remaining activity at 2 µM [16]: 64%
- remaining activity at 2 µM [17]: 97%
- remaining activity at 2 µM [18]: 93%
- remaining activity at 2 µM [19]: 84%
- remaining activity at 2 µM [20]: 92%
- remaining activity at 2 µM [21]: 79%
- remaining activity at 2 µM [22]: 89%
- remaining activity at 2 µM [23]: 83%
- remaining activity at 2 µM [24]: 100%
- remaining activity at 2 µM [25]: 93%
- remaining activity at 2 µM [26]: 71%
- remaining activity at 2 µM [27]: 81%
- remaining activity at 2 µM [28]: 74%
- remaining activity at 2 µM [29]: 85%
- remaining activity at 2 µM [30]: 84%
- remaining activity at 2 µM [31]: 100%
- remaining activity at 2 µM [32]: 75%
- remaining activity at 2 µM [33]: 85%
- remaining activity at 2 µM [34]: 84%
- remaining activity at 2 µM [35]: 100%
- remaining activity at 2 µM [36]: 93%
- remaining activity at 2 µM [37]: 97%
- remaining activity at 2 µM [38]: 94%
- remaining activity at 2 µM [39]: 67%
- remaining activity at 2 µM [40]: 90%
- remaining activity at 2 µM [41]: 87%
- remaining activity at 2 µM [42]: 95%
- remaining activity at 2 µM [43]: 85%
